Measured values as given in patent US20070117743A1, “New antitumoral compounds” (priority 2003, published 2007).
Read-outs that look alike come from different tables or passages of the source. Where a SMILES comes first, the peptide text is derived from it. Bridges are numbered along the chain shown (N, C = ends). [ ]: non-standard residue; d: D form. The star is where a group is joined. d(aIle) = CC[C@H](C)[C@@H](N)C(=O)O; d(aThr) = C[C@@H](O)[C@@H](N)C(=O)O; Hexanoyl(5-Me) = CC(C)CCCC(=O)*; Orn = NCCC[C@H](N)C(=O)O; Dhb = C/C=C(\N)C(=O)O; Dha = C=C(N)C(=O)O

Columns and labels:
Format in all cases: cell-based, human
LoVo = assay: SRB colorimetric assay of cell growth and viability, LoVo; settings: 48 hours exposure; for CC50: read-out: LC50 LOVO
SK-BR-3 = assay: SRB colorimetric assay of cell growth and viability, SK-BR-3; settings: 48 hours exposure
LoVo-Dox = assay: SRB colorimetric assay of cell growth and viability, LoVo-Dox; settings: 48 hours exposure; for CC50: read-out: LC50 LOVO-DOX
Procedure, shortened: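 Continuous 48-hour exposure of cells plated at 5×10^3 per well, with compounds diluted in DMSO:EtOH:PBS (0.5:0.5:99) over 10 to 10^−8 μg/mL. Staining with SRB and reading at 490 nm give GI, TGI and LC.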

A-549 = assay: SRB colorimetric assay of cell growth and viability, A-549; settings: 48 hours exposure; for GI50: read-out: GI50 A-549; for CC50: read-out: LC50 A-549
LNCaP = assay: SRB colorimetric assay of cell growth and viability, LNCaP; settings: 48 hours exposure; for GI50: read-out: GI50 LN-caP; for CC50: read-out: LC50 LN-caP
DU-145 = assay: SRB colorimetric assay of cell growth and viability, DU-145; settings: 48 hours exposure
HeLa-APL = assay: SRB colorimetric assay of cell growth and viability, HeLa-APL; settings: 48 hours exposure; for CC50: read-out: LC50 HELA-APL
HT-29 = assay: SRB colorimetric assay of cell growth and viability, HT-29; settings: 48 hours exposure; for GI50: read-out: GI50 HT-29; for CC50: read-out: LC50 HT-29
PANC-1 = assay: SRB colorimetric assay of cell growth and viability, PANC-1; settings: 48 hours exposure; for CC50: read-out: LC50 PANC-1
SK-MEL-28 = assay: SRB colorimetric assay of cell growth and viability, SK-MEL-28; settings: 48 hours exposure; for CC50: read-out: LC50 MEL-28
IGROV-1 = assay: SRB colorimetric assay of cell growth and viability, IGROV-1; settings: 48 hours exposure
IGROV-ET = assay: SRB colorimetric assay of cell growth and viability, IGROV-ET; settings: 48 hours exposure; for CC50: read-out: LC50 IGROV-ET
K-562 = assay: SRB colorimetric assay of cell growth and viability, K-562; settings: 48 hours exposure; for CC50: read-out: LC50 K-562
HeLa = assay: SRB colorimetric assay of cell growth and viability, HeLa; settings: 48 hours exposure; for CC50: read-out: LC50 HELA

For C=C1NC(=O)[C@H](Cc2ccccc2)NC(=O)[C@@H](C(C)C)NC(=O)[C@@H]([C@@H](C)CC)NC(=O)[C@H](NC(=O)[C@H](NC(=O)[C@H](CCCN)NC(=O)[C@H]2CCCN2C(=O)[C@H](NC(=O)[C@@H](NC(=O)[C@@H](NC(=O)[C@H](NC(=O)CCCC(C)C)C(C)C)[C@@H](C)O)C(C)C)C(C)C)[C@@H](C)CC)[C@@H](C)OC(=O)[C@H](C(C)C)NC1=O [Compound 67, [Dha^2]-KF] ({Hexanoyl(5-Me)}-[dV]TV[dV][dP][Orn][d(aIle)][d(aThr)][d(aIle)][dV]F[Dha]V; ester 8-C), the GI50 (LoVo; SRB) was 173 nM, the “TGI LOVO” value (LoVo; SRB) was 3.40E−07 Molar and the CC50 (LoVo; SRB) was 669 nM. The GI50 (SK-BR-3; SRB) was 320 nM, the LC50 (SK-BR-3; SRB) was 2210 nM and the “TGI SK-BR-3” value (SK-BR-3; SRB) was 5.56E−07 Molar. The GI50 (LoVo-Dox; SRB) was 264 nM, the “TGI LOVO-DOX” value (LoVo-Dox; SRB) was 5.61E−06 Molar and the CC50 (LoVo-Dox; SRB) was 2470 nM. The “TGI A-549” value (A-549; SRB) was 2.70E−06 Molar, the GI50 (A-549; SRB) was 1440 nM and the CC50 (A-549; SRB) was 5060 nM. For the same molecule, the “TGI LN-caP” value (LNCaP; SRB) was 4.60E−06 Molar, the GI50 (LNCaP; SRB) was 1830 nM and the CC50 (LNCaP; SRB) was ≥ 6830 nM. For the same molecule, the GI50 (DU-145; SRB) was 915 nM, the LC50 (concentration causing 50% net cell kill) (DU-145; SRB) was 3400 nM and the “TGI DU-145” value (DU-145; SRB) was 1.77E−06 Molar. For the same molecule, the GI50 (HeLa-APL; SRB) was 1090 nM, the “TGI HELA-APL” value (HeLa-APL; SRB) was 2.03E−06 Molar and the CC50 (HeLa-APL; SRB) was 3750 nM. For the same molecule, the “TGI HT-29” value (HT-29; SRB) was 9.63E−07 Molar, the GI50 (HT-29; SRB) was 347 nM and the CC50 (HT-29; SRB) was 4170 nM. For the same molecule, the GI50 (PANC-1; SRB) was ≥ 6830 nM, the “TGI PANC-1” value (PANC-1; SRB) was 6.83E−06 Molar and the CC50 (PANC-1; SRB) was ≥ 6830 nM. For the same molecule, the GI50 (SK-MEL-28; SRB) was 1130 nM, the “TGI MEL-28” value (SK-MEL-28; SRB) was 2.25E−06 Molar and the CC50 (SK-MEL-28; SRB) was 4510 nM. The GI50 (IGROV-1; SRB) was 553 nM, the LC50 (concentration causing 50% net cell killing) (IGROV-1; SRB) was 4590 nM and the “TGI IGROV” value (IGROV-1; SRB) was 1.58E−06 Molar. For the same molecule, the GI50 (IGROV-ET; SRB) was 390 nM, the “TGI IGROV-ET” value (IGROV-ET; SRB) was 1.33E−06 Molar and the CC50 (IGROV-ET; SRB) was 4530 nM. The GI50 (K-562; SRB) was 2920 nM, the “TGI K-562” value (K-562; SRB) was 6.83E−06 Molar and the CC50 (K-562; SRB) was ≥ 6830 nM. The GI50 (HeLa; SRB) was 1150 nM, the “TGI HELA” value (HeLa; SRB) was 2.15E−06 Molar and the CC50 (HeLa; SRB) was 4000 nM.

For C/C=C1\NC(=O)[C@H](Cc2ccccc2)NC(=O)[C@@H](C(C)C)NC(=O)[C@@H]([C@@H](C)CC)NC(=O)[C@H](NC(=O)[C@H](NC(=O)[C@H](CCCNC(=O)C(F)(F)F)NC(=O)[C@H]2CCCN2C(=O)[C@H](NC(=O)[C@@H](NC(=O)[C@@H](NC(=O)[C@H](NC(=O)CC[C@@H](C)CC)C(C)C)[C@@H](C)OC(=O)C(F)(F)F)C(C)C)C(C)C)[C@@H](C)CC)[C@@H](C)OC(=O)[C@H](C(C)C)NC1=O [Compound 95, [Orn(N^δTfa)^8,Thr(OTfa)^12, 4(S)MeHex^14]-Kahalalide F], the GI50 (LoVo; SRB) was 125 nM, the “TGI LOVO” value (LoVo; SRB) was 2.34E−07 Molar and the CC50 (LoVo; SRB) was 437 nM. For the same molecule, the GI50 (SK-BR-3; SRB) was 73.1 nM, the LC50 (SK-BR-3; SRB) was 520 nM and the “TGI SK-BR-3” value (SK-BR-3; SRB) was 1.95E−07 Molar. The GI50 (LoVo-Dox; SRB) was 124 nM, the “TGI LOVO-DOX” value (LoVo-Dox; SRB) was 2.41E−07 Molar and the CC50 (LoVo-Dox; SRB) was 471 nM. For the same molecule, the “TGI A-549” value (A-549; SRB) was 2.29E−06 Molar, the GI50 (A-549; SRB) was 1150 nM and the CC50 (A-549; SRB) was 4550 nM. For the same molecule, the “TGI LN-caP” value (LNCaP; SRB) was 5.99E−06 Molar, the GI50 (LNCaP; SRB) was 1700 nM and the CC50 (LNCaP; SRB) was 5990 nM. The GI50 (DU-145; SRB) was 892 nM, the LC50 (concentration causing 50% net cell kill) (DU-145; SRB) was 3360 nM and the “TGI DU-145” value (DU-145; SRB) was 1.73E−06 Molar. The GI50 (HeLa-APL; SRB) was 617 nM, the “TGI HELA-APL” value (HeLa-APL; SRB) was 1.52E−06 Molar and the CC50 (HeLa-APL; SRB) was 3740 nM. For the same molecule, the “TGI HT-29” value (HT-29; SRB) was 1.93E−07 Molar, the GI50 (HT-29; SRB) was 86.2 nM and the CC50 (HT-29; SRB) was 432 nM. The GI50 (PANC-1; SRB) was 3580 nM, the “TGI PANC-1” value (PANC-1; SRB) was 5.99E−06 Molar and the CC50 (PANC-1; SRB) was 5990 nM. The GI50 (SK-MEL-28; SRB) was 1030 nM, the “TGI MEL-28” value (SK-MEL-28; SRB) was 1.84E−06 Molar and the CC50 (SK-MEL-28; SRB) was 3280 nM. For the same molecule, the GI50 (IGROV-1; SRB) was 178 nM, the LC50 (concentration causing 50% net cell killing) (IGROV-1; SRB) was 550 nM and the “TGI IGROV” value (IGROV-1; SRB) was 3.13E−07 Molar. The GI50 (IGROV-ET; SRB) was 219 nM, the “TGI IGROV-ET” value (IGROV-ET; SRB) was 3.77E−07 Molar and the CC50 (IGROV-ET; SRB) was 916 nM. The GI50 (K-562; SRB) was 3570 nM, the “TGI K-562” value (K-562; SRB) was 5.99E−06 Molar and the CC50 (K-562; SRB) was 5990 nM. The GI50 (HeLa; SRB) was 162 nM, the “TGI HELA” value (HeLa; SRB) was 3.06E−07 Molar and the CC50 (HeLa; SRB) was 579 nM.

For C/C=C1\NC(=O)[C@H](Cc2ccccc2)NC(=O)[C@@H](C(C)C)NC(=O)[C@@H]([C@@H](C)CC)NC(=O)[C@H](NC(=O)[C@H](NC(=O)[C@H](CCCN)NC(=O)[C@H]2CCCN2C(=O)[C@H](NC(=O)[C@@H](NC(=O)[C@@H](NC(=O)[C@H](NC(=O)CCCC(C)C)C(C)C)C(C)C)C(C)C)C(C)C)[C@@H](C)CC)[C@@H](C)OC(=O)[C@H](C(C)C)NC1=O [Compound 6, [Val^12]-KF] ({Hexanoyl(5-Me)}-[dV]VV[dV][dP][Orn][d(aIle)][d(aThr)][d(aIle)][dV]F[Dhb]V; ester 8-C), the GI50 (LoVo) was 133 nM, the “TGI LOVO” value (LoVo) was 2.48E−07 Molar and the CC50 (LoVo) was 463 nM. The GI50 (SK-BR-3) was 102 nM, the LC50 (SK-BR-3) was 482 nM and the “TGI SK-BR-3” value (SK-BR-3) was 2.22E−07 Molar. The GI50 (LoVo-Dox) was 159 nM, the “TGI LOVO-DOX” value (LoVo-Dox) was 2.83E−07 Molar and the CC50 (LoVo-Dox) was 503 nM. For the same molecule, the “TGI A-549” value (A-549) was 8.54E−07 Molar, the GI50 (A-549) was 257 nM and the CC50 (A-549) was 2360 nM. The “TGI LN-caP” value (LNCaP) was 1.00E−06 Molar, the GI50 (LNCaP) was 313 nM and the CC50 (LNCaP) was 2780 nM. The GI50 (DU-145) was 165 nM, the LC50 (concentration causing 50% net cell kill) (DU-145) was 523 nM and the “TGI DU-145” value (DU-145) was 2.94E−07 Molar. For the same molecule, the GI50 (HeLa-APL) was 379 nM, the “TGI HELA-APL” value (HeLa-APL) was 1.04E−06 Molar and the CC50 (HeLa-APL) was 3110 nM. The “TGI HT-29” value (HT-29) was 2.68E−07 Molar, the GI50 (HT-29) was 148 nM and the CC50 (HT-29) was 485 nM. The GI50 (PANC-1) was 1020 nM, the “TGI PANC-1” value (PANC-1) was 1.96E−06 Molar and the CC50 (PANC-1) was 3800 nM. The GI50 (SK-MEL-28) was 175 nM, the “TGI MEL-28” value (SK-MEL-28) was 2.94E−07 Molar and the CC50 (SK-MEL-28) was 492 nM. For the same molecule, the GI50 (IGROV-1) was 150 nM, the LC50 (concentration causing 50% net cell killing) (IGROV-1) was 598 nM and the “TGI IGROV” value (IGROV-1) was 2.99E−07 Molar. For the same molecule, the GI50 (IGROV-ET) was 154 nM, the “TGI IGROV-ET” value (IGROV-ET) was 2.91E−07 Molar and the CC50 (IGROV-ET) was 549 nM. The GI50 (K-562) was 661 nM, the “TGI K-562” value (K-562) was 1.44E−06 Molar and the CC50 (K-562) was 3070 nM. For the same molecule, the GI50 (HeLa) was 144 nM, the “TGI HELA” value (HeLa) was 2.63E−07 Molar and the CC50 (HeLa) was 480 nM.
